# Laboratory results published in PubChem BioAssay (NCI).
#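 Values below derive from 48-hour exposures of cells grown in 96-well plates, with endpoints linearly interpolated between the two concentrations bracketing the appropriate inhibition level. GI50: concentration for 50% inhibition of growth. Definition used: TGI = concentration required for complete inhibition of growth.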
# Experiments:
# Test in all cases: inhibition of tumour cell growth, NCI panel, 48 h
# EKVX NSCLC = tested on: EKVX NSCLC
# HCT-15 colon = tested on: HCT-15 colon
# M14 melanoma = tested on: M14 melanoma
# NCI-H460 lung = tested on: NCI-H460 lung
# OVCAR-4 ovarian = tested on: OVCAR-4 ovarian
# OVCAR-8 ovarian = tested on: OVCAR-8 ovarian
# SW-620 colon = tested on: SW-620 colon
# U251 CNS = tested on: U251 CNS
# UACC-62 melanoma = tested on: UACC-62 melanoma
# NCI-H522 lung = tested on: NCI-H522 lung
SMILES,TGI (EKVX NSCLC) [µM],TGI (HCT-15 colon) [µM],TGI (M14 melanoma) [µM],TGI (NCI-H460 lung) [µM],TGI (OVCAR-4 ovarian) [µM],TGI (OVCAR-8 ovarian) [µM],TGI (SW-620 colon) [µM],TGI (U251 CNS) [µM],TGI (UACC-62 melanoma) [µM],TGI (NCI-H522 lung) [µM],GI50 (M14 melanoma) [µM],GI50 (NCI-H522 lung) [µM],GI50 (SW-620 colon) [µM],GI50 (UACC-62 melanoma) [µM]
CC1(C)CC(C#Cc2ccccc2)CC(C)(C)N1O,> 100,29,38.2,44.8,> 100,64,50.5,64.6,42.5,,,,,
O=S1(=O)C[C@@H](NCc2ccccc2)[C@H](NCc2ccccc2)C1,> 100,,> 100,> 100,> 100,> 100,> 100,> 100,> 100,> 100,,,,
COc1cc(C2c3cc4c(cc3[C@@H](Nc3ccc5c(c3)OCO5)C3COC(=O)[C@H]23)OCO4)cc(OC)c1O (stereo partly drawn),16.3,2.15,,1.57,,> 20.5,> 37.6,1.74,5.35,4.49,,,,
c1ccc2c(c1)CCCC/C2=N/OCC1CO1 (stereo not drawn),> 100,> 100,,> 100,,> 100,> 100,> 100,,,,,,
CCOC(=O)C1CCC(=O)N1C(=O)c1ccccc1Cl (stereo not drawn),> 100,> 100,> 100,> 100,,> 100,> 100,> 100,95.5,> 100,,,,
Cc1cc(NS(=O)(=O)c2ccc(NC(NC(=O)C(C(F)(F)F)C(F)(F)F)(C(F)(F)F)C(F)(F)F)cc2)no1,> 100,> 100,> 100,> 100,> 100,> 100,> 100,> 100,> 100,,,,,
O=C1c2cccc(O)c2C(=O)c2c(O)cc(CO)cc21,,> 100,> 100,> 100,> 100,,> 100,> 100,,64.6,,,,
O=C(CC(=O)Nc1ccccc1)NNC(c1cc(N=Nc2ccc(Br)cc2)ccc1O)P(O)O (stereo not drawn),,> 10,3.84,> 10,> 10,> 10,> 10,> 10,9.13,> 10,,,,
C[C@H]1OC(=O)[C@@H]2N=NN(Cc3ccccc3)[C@H]12,,> 100,> 100,> 100,> 100,> 100,> 100,> 100,> 100,> 100,,,,
CN1CCN(C2=C(Cl)C3(OCCS3)C(F)(F)C2(F)F)CC1 (stereo not drawn),> 100,> 100,> 100,,> 100,> 100,> 100,> 100,> 100,> 100,,,,
COc1cccc2c1OCC1Cc3ccccc3OC21 (stereo not drawn),> 100,> 100,> 100,,,> 100,> 100,> 100,> 100,> 100,,,,
CC#CC(O)(C(=O)OC1CC(C)N(C)C(C)(C)C1)C1CCCC1 (stereo not drawn),> 100,> 100,> 100,,,> 100,> 100,> 100,> 100,> 100,,,,
O=C(CC(C(=O)c1ccco1)c1ccco1)c1ccco1 (stereo not drawn),> 100,,> 100,> 100,> 100,> 100,> 100,> 100,> 100,> 100,,,,
CCNc1ncnc2sc(SCc3ccccc3)nc12,> 100,> 100,> 100,> 100,> 100,> 100,> 100,> 100,,> 100,,,,
CN(C)CCCNC(=O)c1c(O)c2ccccc2n(C)c1=O,> 100,> 100,,> 100,> 100,> 100,> 100,> 100,> 100,> 100,,,,
COc1ccc(NC(C)c2ccncc2)cc1 (stereo not drawn),> 100,> 100,> 100,> 100,> 100,> 100,> 100,> 100,,> 100,,,,
COc1ccc(OC)c2sc(N3C(=O)/C(=C/c4cccc([N+](=O)[O-])c4)N=C3c3ccccc3)nc12,> 100,> 100,> 100,> 100,,> 100,95.2,> 100,> 100,> 100,,,,
COC(=O)[C@H](Cc1ccccc1)NC(=O)N(CCC#N)CCN(C(=O)N[C@@H](Cc1ccccc1)C(=O)OC)c1ccccc1,73.2,> 100,55.1,,69.2,> 100,> 100,,13.6,,,,,
COc1ccc(/C=N/n2c(C)nc3c(sc(=S)n3-c3ccccc3)c2=O)cc1,,,,> 100,,> 100,> 100,> 100,> 100,46.4,,,,
O=C1OC(c2ccccc2)N(C(=O)c2ccccc2)C1Cc1ccc(OCc2ccccc2)cc1 (stereo not drawn),> 100,> 100,> 100,> 100,,> 100,> 100,> 100,> 100,,,,,
CC1(C)N=C2C(=O)c3c([nH]c4ccccc34)[C@]3(C)CCC1CC23 (stereo partly drawn),> 6.25,> 6.25,,> 6.25,> 6.25,> 6.25,> 6.25,> 6.25,,> 6.25,,,,
CC(=O)Oc1c(C)c(C)c2c(c1C)CCC(C)(CC(=O)OCCCCCCCCCCC[P+](c1ccccc1)(c1ccccc1)c1ccccc1)O2 (stereo not drawn),,,1.56,,,,1.33,,0.982,0.666,0.408,0.21,0.315,0.291
COc1cc(/C=C2\CCC(C)/C(=C\c3cc(OC)c(OC)c(OC)c3)C2=O)cc(OC)c1OC (stereo not drawn),16.3,6.57,4.42,,,9.52,> 100,> 100,6.89,,,,,
CCN(CCCl)c1cc(CN(C)C)cc(NC(=O)c2ccc(C(=O)Nc3cccc(CN(C)C)c3)cc2)c1,,> 100,17.7,10.6,6.08,12.8,0.75,0.667,4.07,0.042,,,,
